# Tested on: EG7 cells
smiles,measurement,value
CC[C@H](C)[C@H](NC(=O)[C@@H](NC(=O)[C@@H](N)CO)[C@@H](C)CC)C(=O)N[C@@H](CC(N)=O)C(=O)N[C@@H](Cc1ccccc1)C(=O)N[C@@H](CCC(=O)O)C(=O)N[C@@H](CCCCN)C(=O)N[C@@H](CC(C)C)C(=O)O [OVA-I peptide],cytotoxic activity of splenocytes against EG7,only low cytotoxic activity was induced

# From patent US9045556B2, “Therapeutic agent for cancer” (NEC Corporation, priority 2007, dated 2015)
